Data published in ChEMBL document CHEMBL3425473, “Synthesis and biological evaluation of boswellic acid-NSAID hybrid molecules as anti-inflammatory and anti-arthritic agents” (Eur J Med Chem, 2015).
Activity calls are given as the source filed them. No cut-off for these calls is given here.

How the values were obtained:
[1] = tested on: Rattus norvegicus; experiment: In vivo inhibition of COX-2 activity in Complete Freund's adjuvant-induced arthritic albino Wistar rat serum assessed as decrease in peroxidase activity measured as TMPD oxidation rate at 10 mg/kg administered via gavage daily started from day 7 and continued till day 21 after CFA injection by colorimetric analysis; assay type: functional, organism-based; parameters: dose 10 mg/kg
[2] = tested on: SW982; experiment: Inhibition of IL-1 beta-induced LOX activity in human SW982 cells assessed as enzyme activity at LD50 treated for 24 hrs prior to incubation with IL-1 beta for 6 hrs (reference value: 100.0%); assay type: cell-based; parameters: scale not given: the % may be the effect or the level left
[3] = tested on: Rattus norvegicus; experiment: Reduction in neutrophil infiltration in Complete Freund's adjuvant-induced arthritic albino Wistar rat ankle joint at 10 mg/kg administered via gavage daily started from day 7 and continued till day 21 after CFA injection by hematoxylin-eosin staining based microscopic analysis; assay type: functional, organism-based; parameters: dose 10 mg/kg
[4] = Cytotoxicity against human SW982 cells after 24 hrs by MTT assay; assay type: cell-based; details: read-out: LD50
[5] = target: T1, Prostaglandin G/H synthase 2 (Homo sapiens) (UniProt P35354); experiment: Inhibition of IL-1 beta-induced COX-2 activity in human SW982 cells assessed as enzyme activity at LD50 treated for 24 hrs prior to incubation with IL-1 beta for 6 hrs (reference value: 100.0%); assay type: cell-based; parameters: scale not given: the % may be the effect or the level left
T1 sequence (whole entry): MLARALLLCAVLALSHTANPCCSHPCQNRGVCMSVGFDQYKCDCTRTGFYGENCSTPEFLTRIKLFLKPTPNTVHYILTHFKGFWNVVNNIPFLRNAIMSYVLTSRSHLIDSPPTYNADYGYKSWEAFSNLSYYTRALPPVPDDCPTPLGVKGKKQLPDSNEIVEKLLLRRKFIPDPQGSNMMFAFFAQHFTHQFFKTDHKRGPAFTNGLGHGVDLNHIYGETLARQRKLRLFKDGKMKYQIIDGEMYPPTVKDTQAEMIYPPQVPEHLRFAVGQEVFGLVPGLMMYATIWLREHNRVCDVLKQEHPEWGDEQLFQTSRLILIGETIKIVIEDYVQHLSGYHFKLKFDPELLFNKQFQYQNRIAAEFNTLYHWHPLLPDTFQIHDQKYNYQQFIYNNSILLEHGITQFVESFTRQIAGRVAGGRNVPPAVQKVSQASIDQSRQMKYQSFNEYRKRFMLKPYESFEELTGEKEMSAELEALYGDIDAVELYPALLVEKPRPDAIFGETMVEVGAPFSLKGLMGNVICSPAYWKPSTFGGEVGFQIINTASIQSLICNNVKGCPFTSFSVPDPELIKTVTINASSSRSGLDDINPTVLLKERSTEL

SMILES	inhibition [1]	Activity [2] [%]	inhibition [3]	CC50 at 24 h [4] [µM]	Activity [5] [%]
COC(=O)[C@]1(C)[C@@H]2CC[C@]3(C)[C@H](C(=O)C=C4[C@@H]5[C@@H](C)[C@H](C)CC[C@]5(C)CC[C@]43C)[C@@]2(C)CC[C@H]1OC(=O)Cc1c(C)n(C(=O)c2ccc(Cl)cc2)c2ccc(OC)cc12	Active	–	–	–	–
COC(=O)[C@]1(C)[C@@H]2CC[C@]3(C)[C@H](C(=O)C=C4[C@@H]5[C@@H](C)[C@H](C)CC[C@]5(C)CC[C@]43C)[C@@]2(C)CC[C@H]1OC(=O)Cc1ccccc1Nc1c(Cl)cccc1Cl	Active	–	–	–	–
COC(=O)[C@]1(C)[C@@H]2CC[C@]3(C)[C@H](CC=C4[C@@H]5[C@@H](C)[C@H](C)CC[C@]5(C)CC[C@]43C)[C@@]2(C)CC[C@H]1OC(=O)Cc1c(C)n(C(=O)c2ccc(Cl)cc2)c2ccc(OC)cc12	Active	–	–	–	–
COC(=O)[C@]1(C)[C@@H]2CC[C@]3(C)[C@H](CC=C4[C@@H]5[C@@H](C)[C@H](C)CC[C@]5(C)CC[C@]43C)[C@@]2(C)CC[C@H]1OC(=O)Cc1ccccc1Nc1c(Cl)cccc1Cl	Active	–	–	–	–
COC(=O)[C@]1(C)[C@@H]2CC[C@]3(C)[C@H](CC=C4[C@@H]5[C@@H](C)[C@H](C)CC[C@]5(C)CC[C@]43C)[C@@]2(C)CC[C@H]1OC(=O)C(C)c1ccc(CC(C)C)cc1 (mixture of isomers)	Active	65.8	Active	62.6	30.2
COC(=O)[C@]1(C)[C@@H]2CC[C@]3(C)[C@H](C(=O)C=C4[C@@H]5[C@@H](C)[C@H](C)CC[C@]5(C)CC[C@]43C)[C@@]2(C)CC[C@H]1OC(=O)C(C)c1ccc(CC(C)C)cc1 (mixture of isomers)	Active	60.2	Active	40.6	27.7
COC(=O)[C@]1(C)[C@@H]2CC[C@]3(C)[C@H](C(=O)C=C4[C@@H]5[C@@H](C)[C@H](C)CC[C@]5(C)CC[C@]43C)[C@@]2(C)CC[C@H]1OC(=O)C(C)c1ccc2cc(OC)ccc2c1 (mixture of isomers)	Active	–	–	–	–
COC(=O)[C@]1(C)[C@@H]2CC[C@]3(C)[C@H](CC=C4[C@@H]5[C@@H](C)[C@H](C)CC[C@]5(C)CC[C@]43C)[C@@]2(C)CC[C@H]1OC(=O)C(C)c1ccc2cc(OC)ccc2c1 (mixture of isomers)	Active	–	–	–	–
C[C@H]1[C@H](C)CC[C@]2(C)CC[C@]3(C)C(=CC(=O)[C@@H]4[C@@]5(C)CC[C@@H](O)[C@](C)(C(=O)O)[C@@H]5CC[C@]43C)[C@H]12 [11-KETO BOSWELLIC ACID]	Active	72.7	Active	82	27.4
C[C@H]1[C@H](C)CC[C@]2(C)CC[C@]3(C)C(=CC[C@@H]4[C@@]5(C)CC[C@@H](O)[C@](C)(C(=O)O)[C@@H]5CC[C@]43C)[C@H]12 [BOSWELLIC ACID]	–	44	–	70.2	50.8
CC(C)Cc1ccc(C(C)C(=O)O)cc1 (configuration not stated) [IBUPROFEN]	Active	–	Active	93	–
